Reference: ChEMBL document CHEMBL2203092, “Clerodane diterpenoids from Croton crassifolius” (J Nat Prod, 2012)
In brackets after ≈: the same amount, converted by molar mass.

System: Human alphaherpesvirus 1
Assay: Antiviral activity against HSV1 F ATCC VR733 infected in african green monkey Vero cells assessed as reduction of virus-induced cytopathic effect after 3 days
Assay type: functional, organism-based
Settings: Human alphaherpesvirus 1, Strain F ATCC VR 733, Vero, 72 h

Row | IC50 [µg/mL] | SMILES
1 | 50 (≈ 139 µM) | COC(=O)[C@]1(C)CCCC2=C1CC[C@@H](C)[C@]21C[C@@H](c2ccoc2)OC1=O [PENDULIFLAWOROSIN]
2 | 50 (≈ 120 µM) | COC(=O)[C@@]1(C)C2=C(CC[C@H]1OC(C)=O)[C@@]1(C[C@@H](c3ccoc3)OC1=O)[C@H](C)CC2 [CRASSIFOLIN F]

The remaining lines, values behind:

Row | SMILES | IC50 [µg/mL]
3 | C[C@@H]1CC(=O)[C@@H]2[C@@H](C(=O)O)CCC[C@H]2[C@@]12C[C@@H](c1ccoc1)OC2=O | 25 (≈ 72.2 µM)
4 | COC(=O)[C@@]1(C)CC(=O)C=C2C1=CC[C@@H](C)[C@]2(C)CC(=O)c1ccoc1 [CRASSIFOLIN C] | 50 (≈ 140 µM)
5 | Nc1nc2c(ncn2COCCO)c(=O)[nH]1 [ACYCLOVIR] | 0.2 (≈ 0.888 µM)
6 | COC(=O)[C@]12CCCC3=C1[C@@H](C[C@H](C)[C@@]31C[C@H](c3ccoc3)OC1=O)OC2 [CRASSIFOLIN D] | 50 (≈ 134 µM)
